Data taken from ChEMBL document CHEMBL1275597, “In vitro activity of the aminoglycoside antibiotic arbekacin against Acinetobacter baumannii-calcoaceticus isolated from war-wounded patients at Walter Reed Army Medical Center” (Antimicrob Agents Chemother, 2010).
Converted amounts (≈) assume the structure as drawn. The source made the active and inactive calls. The calls are words filed in the database; no cut-off is given here.

Experiments:
[1] = tested on: Acinetobacter calcoaceticus/baumannii complex; experiment: (§1) Antimicrobial activity against Acinetobacter baumannii-calcoaceticus obtained from war-wounded patient assessed as susceptible isolates; format: functional
[2] = as §1; format: functional, Acinetobacter calcoaceticus/baumannii complex
[3] = Antimicrobial activity against Acinetobacter baumannii-calcoaceticus obtained from war-wounded patient assessed as susceptible isolates in presence of beta-lactamase inhibitor Sulbactam; format: functional, Acinetobacter calcoaceticus/baumannii complex
[4] = Antimicrobial activity against Acinetobacter baumannii-calcoaceticus obtained from war-wounded patient; format: functional; conditions: Acinetobacter calcoaceticus/baumannii complex
[5] = Antimicrobial activity against Acinetobacter baumannii-calcoaceticus obtained from war-wounded patient assessed as zone of inhibition at 128 ug/ml by disk diffusion method; format: functional; conditions: Acinetobacter calcoaceticus/baumannii complex; read-out: IZ
[6] = Cmax in war-wounded patient infected with Acinetobacter baumannii-calcoacetius at 2 to 3 mg/kg/day; format: ADME, organism-based; conditions: human, in vivo
[7] = Antimicrobial activity against Acinetobacter baumannii-calcoaceticus […] in presence of imipenem; format: functional, Acinetobacter calcoaceticus/baumannii complex
[8] = Antimicrobial activity against Acinetobacter baumannii-calcoaceticus […] in presence of meropenem; format: functional, Acinetobacter calcoaceticus/baumannii complex
[9] = tested on: Acinetobacter calcoaceticus/baumannii complex; experiment: Antimicrobial activity against Acinetobacter baumannii-calcoaceticus obtained from war-wounded patient assessed as susceptible isolates by tube dilution assay; format: functional
Homo sapiens = experiment: Cmax in war-wounded patient infected with Acinetobacter baumannii-calcoacetius at 5 to 7 mg/kg/day; format: ADME, organism-based; conditions: in vivo

Compound	Activity [2] [%]	further results
COc1c(N2C[C@@H]3CCCN[C@@H]3C2)c(F)cc2c(=O)c(C(=O)O)cn(C3CC3)c12	–	Activity [1]: inactive
NCC[C@H](O)C(=O)N[C@@H]1C[C@H](N)[C@@H](O[C@H]2O[C@H](CN)[C@@H](O)[C@H](O)[C@H]2O)[C@H](O)[C@H]1O[C@H]1O[C@H](CO)[C@@H](O)[C@H](N)[C@H]1O [AMIKACIN]	59	–
CC1(C)S[C@@H]2[C@H](NC(=O)[C@H](N)c3ccccc3)C(=O)N2[C@H]1C(=O)O [AMPICILLIN]	–	Activity [3]: 67.3%
NCC[C@H](O)C(=O)N[C@@H]1C[C@H](N)[C@@H](O[C@H]2O[C@H](CN)CC[C@H]2N)[C@H](O)[C@H]1O[C@H]1O[C@H](CO)[C@@H](O)[C@H](N)[C@H]1O [ARBEKACIN]	86.5	MIC [4]: 2 mg/L (≈ 3.62 µM); zone of inhibition at 128 µg/mL [5]: 13 mm; Cmax [6]: 20 µg/mL
CO/N=C(\C(=O)N[C@@H]1C(=O)N2C(C(=O)[O-])=C(C[N+]3(C)CCCC3)CS[C@H]12)c1csc(N)n1 [CEFEPIME]	32.7	–
CC(C)(O/N=C(\C(=O)N[C@@H]1C(=O)N2C(C(=O)[O-])=C(C[n+]3ccccc3)CS[C@H]12)c1csc(N)n1)C(=O)O [CEFTAZIDIME]	25	–
O=C(O)c1cn(C2CC2)c2cc(N3CCNCC3)c(F)cc2c1=O [CIPROFLOXACIN]	14.5	–
COc1c(N2CCNC(C)C2)c(F)cc2c(=O)c(C(=O)O)cn(C3CC3)c12 (stereo not drawn) [GATIFLOXACIN]	27	–
C[C@@H](O)[C@H]1C(=O)N2C(C(=O)O)=C(SCCNC=N)C[C@H]12 [IMIPENEM ANHYDROUS]	55	fractional inhibitory concentration index (FICI) [7]: 0.375
C[C@H]1COc2c(N3CCN(C)CC3)c(F)cc3c(=O)c(C(=O)O)cn1c23.C[C@H]1COc2c(N3CCN(C)CC3)c(F)cc3c(=O)c(C(=O)O)cn1c23.O [LEVOFLOXACIN]	20.5	–
C[C@@H](O)[C@H]1C(=O)N2C(C(=O)O)=C(S[C@@H]3CN[C@H](C(=O)N(C)C)C3)[C@H](C)[C@H]12 [MEROPENEM]	53.7	fractional inhibitory concentration index (FICI) [8]: 0.5
CN(C)c1ccc(O)c2c1C[C@H]1C[C@H]3[C@H](N(C)C)C(O)=C(C(N)=O)C(=O)[C@@]3(O)C(O)=C1C2=O [MINOCYCLINE]	92.6	–
CCN1CCN(C(=O)N[C@@H](C(=O)N[C@@H]2C(=O)N3[C@@H]2SC(C)(C)[C@@H]3C(=O)O)c2ccccc2)C(=O)C1=O [PIPERACILLIN]	9.8	–
NC[C@H]1O[C@H](O[C@H]2[C@H](O)[C@@H](O[C@H]3O[C@H](CO)[C@@H](O)[C@H](N)[C@H]3O)[C@H](N)C[C@@H]2N)[C@H](N)C[C@@H]1O [TOBRAMYCIN]	56	–
COLISTIN	–	Activity [9]: 100%
GENTAMICIN [listing 1 of 2 here]	–	Cmax (Homo sapiens): < 4 µg/mL
GENTAMICIN [listing 2 of 2 here]	–	Activity [1]: 14.5%
POLYMYXIN B	–	Activity [9]: 100%
